Molecular target: T1, human orexin-2 receptor (OX2R) (Homo sapiens, UniProt O43614)
T1 construct: expressed in transfected cells
T1 sequence (O43614 1-444): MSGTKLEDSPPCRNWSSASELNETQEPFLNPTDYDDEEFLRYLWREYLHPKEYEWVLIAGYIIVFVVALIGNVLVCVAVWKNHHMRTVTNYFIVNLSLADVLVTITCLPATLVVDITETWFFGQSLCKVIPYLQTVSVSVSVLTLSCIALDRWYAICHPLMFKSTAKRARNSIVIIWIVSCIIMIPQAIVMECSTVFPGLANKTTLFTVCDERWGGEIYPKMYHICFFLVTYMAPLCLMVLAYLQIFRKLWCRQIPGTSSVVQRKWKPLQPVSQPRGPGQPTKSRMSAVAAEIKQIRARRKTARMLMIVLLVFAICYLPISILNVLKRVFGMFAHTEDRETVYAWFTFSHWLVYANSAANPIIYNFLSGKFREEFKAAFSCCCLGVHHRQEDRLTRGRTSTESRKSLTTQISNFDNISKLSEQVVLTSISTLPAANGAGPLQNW
Assay: Human OX2R IP1 assay
Type: cell-based
Details: T-Rex CHO cells stably overexpressing human OX2R; IP1 accumulation, 1 hr at 37 degrees C; mean EC50
Procedure: T-Rex CHO cells stably overexpressing the human orexin-2 receptor (OX2R) were induced overnight with 1 μg/mL of doxycycline in a T225 flask. 24 hours post induction, cells were lifted with accutase and plated into a 384-well proxy plate at 30,000 cells/well. Cells were then treated with different test compounds in 1× stimulation buffer containing 10 mM Hepes, 1 mM CaCl2, 0.5 mM MgCl2, 4.2 mM KCl, 146 mM NaCl, 5.5 mM glucose, and 50 mM LiCl, pH 7.4, for 1 hr at 37 degrees C. Following incubation, the reaction was terminated by the addition of detection mix, which is composed of IP1-d2 and anti-IP1-cryptate diluted in lysis buffer as well as 1× stimulation buffer. The plates were allowed to incubate for 1 hour at room temperature and were then read in the EnVision® multimode plate reader, measuring inositol phosphate levels.
Cisbio IP1 is a cell-based functional assay quantifying the accumulation of inositol monophosphate (IP), a metabolite released as a result of orexin 2 receptor activation through the phospholipase C-Gq signaling pathway. This is a competitive immunoassay in which the IP1 produced by the cells upon receptor activation competes with the IP1 analog coupled to the d2 fluorophore (acceptor) for binding to an anti-IP1 monoclonal antibody labeled with Eu cryptate (donor). The measured HTRF-FRET based signal is inversely proportional to the IP1 concentration produced.
The EC50 values reported in Table 2 were obtained according to the human OX2R IP1 assay described above. Data are the mean EC50 values±S.E.M.

| EC50 [µM] | SMILES |
| --- | --- |
| 0.001 to 0.01 | Cn1ncc2cc([C@H]3CC[C@@H](OC[C@@H]4CN(C(=O)C5CCOC5)CC[C@@H]4NS(C)(=O)=O)CC3)ccc21 (stereo partly drawn) [Compound 59] |
| 0.001 to 0.01 | Cn1ncc2cc([C@H]3CC[C@@H](OC[C@@H]4CN(C(=O)C(C)(C)C)CC[C@@H]4NS(C)(=O)=O)CC3)ccc21 [Compound 22] |
| > 0.01 | Cn1ncc2cc([C@H]3CC[C@@H](OC[C@@H]4CN(C(=O)[C@H]5CCOC5)CC[C@@H]4NS(C)(=O)=O)CC3)ccc21 [Compound 62] |
| 0.001 to 0.01 | Cn1ncc2cc([C@H]3CC[C@@H](OC[C@@H]4CN(C(=O)C5CCOC5)CC[C@@H]4NS(=O)(=O)C(F)(F)F)CC3)ccc21 (stereo partly drawn) [Compound 33] |
| 0.001 to 0.01 | Cn1ncc2cc([C@H]3CC[C@@H](OC[C@@H]4CN(c5cnccn5)CC[C@@H]4NS(=O)(=O)C(F)(F)F)CC3)ccc21 [Compound 25] |
| > 0.01 | Cn1ncc2cc([C@H]3CC[C@@H](OC[C@@H]4CN(C(=O)CO)CC[C@@H]4NS(C)(=O)=O)CC3)ccc21 [Compound 48] |
| < 0.001 | Cn1ncc2cc([C@H]3CC[C@@H](OC[C@@H]4CN(C(=O)C5(F)CCC5)CC[C@@H]4NS(C)(=O)=O)CC3)ccc21 [Compound 11] |
| 0.001 to 0.01 | Cn1ncc2cc([C@H]3CC[C@@H](OC[C@@H]4CN(C(=O)[C@@]5(C)CCOC5)CC[C@@H]4NS(C)(=O)=O)CC3)ccc21 [Compound 28] |
| > 0.01 | Cn1ncc2cc([C@H]3CC[C@@H](OC[C@@H]4CN(C(=O)CN5CCOCC5)CC[C@@H]4NS(C)(=O)=O)CC3)ccc21 [Compound 45] |
| 0.001 to 0.01 | Cn1ncc2cc([C@H]3CC[C@@H](OC[C@@H]4CN(C(=O)c5cncs5)CC[C@@H]4NS(C)(=O)=O)CC3)ccc21 [Compound 27] |
| < 0.001 | Cn1ncc2cc([C@H]3CC[C@@H](OC[C@@H]4CN(c5ccccn5)CC[C@@H]4NS(=O)(=O)C(F)(F)F)CC3)ccc21 [Compound 10] |
| > 0.01 | CC(=O)N1CC[C@H](NS(C)(=O)=O)[C@H](CO[C@H]2CC[C@@H](c3ccc4c(cnn4C)c3)CC2)C1 [Compound 20] |
| > 0.01 | Cn1ncc2ccc(C3CCC(OC[C@@H]4CN(c5ccccn5)CC[C@@H]4NS(C)(=O)=O)CC3)cc21 (stereo partly drawn) [Compound 66] |
| 0.001 to 0.01 | COC(=O)N1CC[C@H](NS(C)(=O)=O)[C@H](CO[C@H]2CC[C@@H](c3ccc4[nH]ncc4c3)CC2)C1 [Compound 5] |
| 0.001 to 0.01 | Cn1cnc2ccc([C@H]3CC[C@@H](OC[C@@H]4CN(C(=O)C5(F)CCC5)CC[C@@H]4NS(C)(=O)=O)CC3)cc21 [Compound 19] |
| > 0.01 | Cn1ncc2cc([C@H]3CC[C@@H](OC[C@@H]4CN(C(=O)C5CCOC5)CC[C@@H]4NS(C)(=O)=O)CC3)ccc21 (stereo partly drawn) [Compound 60] |
| 0.001 to 0.01 | O=S(=O)(N[C@H]1CCN(c2ccccn2)C[C@H]1CO[C@H]1CC[C@@H](c2ccc3[nH]ncc3c2)CC1)C(F)(F)F [Compound 2] |
| < 0.001 | Cn1cnc2cc([C@H]3CC[C@@H](OC[C@@H]4CN(C(=O)C5(F)CCC5)CC[C@@H]4NS(C)(=O)=O)CC3)ccc21 [Compound 16] |
| 0.001 to 0.01 | CS(=O)(=O)N[C@H]1CCN(C(=O)C2(F)CCC2)C[C@H]1CO[C@H]1CC[C@@H](c2ccc3[nH]ncc3c2)CC1 [Compound 4] |
| > 0.01 | CN(C)C(=O)N[C@H]1CCN(c2cccnn2)C[C@H]1CO[C@H]1CC[C@@H](c2ccc3c(cnn3C)c2)CC1 [Compound 58] |
| 0.001 to 0.01 | Cn1ncc2cc([C@H]3CC[C@@H](OC[C@@H]4CN(c5cccnn5)CC[C@@H]4NS(=O)(=O)C(F)(F)F)CC3)cc(F)c21 [Compound 26] |
| 0.001 to 0.01 | Cn1ncc2cc([C@H]3CC[C@@H](OC[C@@H]4CN(C(=O)N5CCC5)CC[C@@H]4NS(C)(=O)=O)CC3)ccc21 [Compound 23] |
| < 0.001 | Cn1ncc2cc([C@H]3CC[C@@H](OC[C@@H]4CN(c5ccccn5)CC[C@@H]4NS(C)(=O)=O)CC3)ccc21 [Compound 3] |
| > 0.01 | Cn1ncc2cc([C@H]3CC[C@@H](OC[C@@H]4CN(C(=O)C5COC5)CC[C@@H]4NS(C)(=O)=O)CC3)ccc21 [Compound 47] |

| EC50 [µM] | SMILES |
| --- | --- |
| > 0.01 | Cn1ncc2ccc([C@H]3CC[C@H](OC[C@@H]4CN(c5ccccn5)CC[C@@H]4NS(C)(=O)=O)CC3)cc21 [Compound 65] |
| 0.001 to 0.01 | Cn1ncc2cc([C@H]3CC[C@@H](OC[C@@H]4CN(C(=O)C(C)(C)O)CC[C@@H]4NS(C)(=O)=O)CC3)ccc21 [Compound 21] |
| 0.001 to 0.01 | Cn1ncc2cc([C@H]3CC[C@@H](OC[C@@H]4CN(C(=O)C5(F)CCC5)CC[C@@H]4NS(=O)(=O)C(F)(F)F)CC3)ccc21 [Compound 14] |
| < 0.001 | Cn1ncc2cc([C@H]3CC[C@@H](OC[C@@H]4CN(c5cccnn5)CC[C@@H]4NS(=O)(=O)C(F)(F)F)CC3)ccc21 [Compound 13] |
| > 0.01 | Cn1ccnc1CC(=O)N1CC[C@H](NS(C)(=O)=O)[C@H](CO[C@H]2CC[C@@H](c3ccc4c(cnn4C)c3)CC2)C1 [Compound 49] |
| > 0.01 | Cn1cnc2ccc(C3CCC(OC[C@@H]4CN(c5ccccn5)CC[C@@H]4NS(C)(=O)=O)CC3)cc21 (stereo partly drawn) [Compound 63] |
| 0.001 to 0.01 | Cn1cnc2cc([C@H]3CC[C@@H](OC[C@@H]4CN(c5ccccn5)CC[C@@H]4NS(C)(=O)=O)CC3)ccc21 [Compound 8] |
| > 0.01 | Cn1ncc2cc([C@H]3CC[C@@H](OC[C@@H]4CN(C(=O)Cc5ccncn5)CC[C@@H]4NS(C)(=O)=O)CC3)ccc21 [Compound 52] |
| > 0.01 | Cn1ncc2cc([C@H]3CC[C@@H](OC[C@@H]4CN(c5ccccn5)CC[C@@H]4NS(C)(=O)=O)CC3)ncc21 [Compound 7] |
| 0.001 to 0.01 | CN(C)S(=O)(=O)N[C@H]1CCN(C(=O)[C@@H]2CCOC2)C[C@H]1CO[C@H]1CC[C@@H](c2ccc3c(cnn3C)c2)CC1 [Compound 31] |
| < 0.001 | CNS(=O)(=O)N[C@H]1CCN(c2cccnn2)C[C@H]1CO[C@H]1CC[C@@H](c2ccc3c(cnn3C)c2)CC1 [Compound 29] |
| 0.001 to 0.01 | Cn1ncc2cc([C@H]3CC[C@@H](OC[C@@H]4CN(C(=O)C5CC5)CC[C@@H]4NS(C)(=O)=O)CC3)ccc21 [Compound 18] |
| < 0.001 | CS(=O)(=O)N[C@H]1CCN(c2ccccn2)C[C@H]1CO[C@H]1CC[C@@H](c2ccc3[nH]ncc3c2)CC1 [Compound 1] |
| > 0.01 | Cn1ncc2cc([C@H]3CC[C@@H](OC[C@@H]4CN(CC(=O)N5CCCCC5)CC[C@@H]4NS(C)(=O)=O)CC3)ccc21 [Compound 61] |
| 0.001 to 0.01 | COC(=O)N1CC[C@H](NS(C)(=O)=O)[C@H](CO[C@H]2CC[C@@H](c3ccc4c(cnn4C)c3)CC2)C1 [Compound 12] |
| 0.001 to 0.01 | Cn1cnc2ccc([C@H]3CC[C@@H](OC[C@@H]4CN(c5ccccn5)CC[C@@H]4NS(C)(=O)=O)CC3)cc21 [Compound 9] |
| > 0.01 | Cn1ncc2cc([C@H]3CC[C@@H](OC[C@@H]4CN(C(=O)C5CCO5)CC[C@@H]4NS(C)(=O)=O)CC3)ccc21 (stereo partly drawn) [Compound 53] |
| 0.001 to 0.01 | Cn1ncc2cc([C@H]3CC[C@@H](OC[C@@H]4CN(C(=O)[C@@H]5CCOC5)CC[C@@H]4NS(C)(=O)=O)CC3)ccc21 [Compound 17] |
| > 0.01 | Cn1ncc2cc([C@H]3CC[C@@H](OC[C@@H]4CN(C(=O)Cc5cnccn5)CC[C@@H]4NS(C)(=O)=O)CC3)ccc21 [Compound 51] |
| > 0.01 | Cn1ncc2cc([C@H]3CC[C@@H](OC[C@@H]4CN(C(=O)CN5CCCCC5)CC[C@@H]4NS(C)(=O)=O)CC3)ccc21 [Compound 46] |
| > 0.01 | Cn1ncc2cc([C@H]3CC[C@@H](OC[C@@H]4CN(C(=O)Cc5ncccn5)CC[C@@H]4NS(C)(=O)=O)CC3)ccc21 [Compound 50] |
| < 0.001 | CN(C)S(=O)(=O)N[C@H]1CCN(c2cccnn2)C[C@H]1CO[C@H]1CC[C@@H](c2ccc3c(cnn3C)c2)CC1 [Compound 30] |
| 0.001 to 0.01 | Cn1ncc2cc([C@H]3CC[C@@H](OC[C@@H]4CN(c5cccnn5)CC[C@@H]4NS(C)(=O)=O)CC3)ccc21 [Compound 15] |
| 0.001 to 0.01 | Cn1cnc2ccc([C@H]3CC[C@H](OC[C@@H]4CN(c5ccccn5)CC[C@@H]4NS(C)(=O)=O)CC3)cc21 [Compound 64] |

— patent US20250230141A1, “Substituted Fused Bicyclic Compounds and Related Methods of Treatment” (Alkermes, Inc., priority 2022, published 2025)
